Values after ≈ are worked out from the molar mass of the structure shown.
Assays:
Escherichia coli 67 = assay: Antibacterial activity in vitro, agar plate dilution method (MIC); assay type: cell-based; settings: Mueller Hinton agar, 10^6 cells/ml, 37° C., 20 hours
Experimental: (§1) Antibacterial activity in vitro was determined in accordance with the agar plate dilution method. A platinum loop each of test bacteria (10^6 cells/ml), cultured in Mueller Hinton broth, was inoculated on Mueller Hinton agar plates which contained test compounds at various concentrations. After cultivating at 37° C. for 20 hours, the minimum inhibitory concentration (MIC μg/ml) was determined.

[1] = test system: Klebsiella pneumoniae IFO3317; assay: as above; assay type: cell-based; settings: Mueller Hinton agar, 10^6 cells/ml, 37° C., 20 hours
Experimental: as §1

[2] = test system: Pseudomonas aeruginosa IFO3445; assay: as above; assay type: cell-based; settings: Mueller Hinton agar, 10^6 cells/ml, 37° C., 20 hours
Experimental: as §1

[3] = test system: Serratia marcescens IFO3759; assay: as above; assay type: cell-based; settings: Mueller Hinton agar, 10^6 cells/ml, 37° C., 20 hours
Experimental: as §1

[4] = test system: Staphylococcus aureus Smith; assay: as above; assay type: cell-based; settings: Mueller Hinton agar, 10^6 cells/ml, 37° C., 20 hours
Experimental: as §1

Serratia marcescens 274 = assay: Protection ability against systemic infection; assay type: in vivo, ICR mice; settings: in Mus musculus, iv, 168 h, Table 2-b, i.p. infection, i.v. compound 1 hour later, survival at 1 week, read-out: ED50
Experimental: (§2) Protection ability against systemic infection was determined as follows. An aqueous suspension of test bacteria was intraperitoneally injected into 10 four week old ICR mice. One hour after the infection, test compounds were intravenously administered. The number of surviving mice was counted 1 week after injection to determine the dose at which 50% of the test animals were alive (ED50 :mg/kg).

LD50, Probit method = settings: in vivo, iv
Experimental: Next, LD50 of representative examples of the compounds of the present invention is shown in Table 3 wherein LD50 was determined in accordance with the Probit method.

[5] = test system: Staphylococcus aureus 242 (methicillin-resistant strain); assay: Protection ability against systemic infection; assay type: in vivo, ICR mice; settings: in Mus musculus, iv, 168 h, Table 2-a, i.p. infection, i.v. compound 1 hour later, survival at 1 week, read-out: ED50
Experimental: as §2

| Structure (SMILES) | MIC (Escherichia coli 67) [µg/mL] | MIC [1] [µg/mL] | MIC [2] [µg/mL] | MIC [3] [µg/mL] | MIC [4] [µg/mL] | ED50 (Serratia marcescens 274) [mg/kg] | LD50 (LD50, Probit method) [mg/kg] | ED50 [5] [mg/kg] |
| --- | --- | --- | --- | --- | --- | --- | --- | --- |
| Nc1nc(/C(=N/OC(C(=O)O)c2ccc(O)c(O)c2)C(=O)N[C@@H]2C(=O)N3C(C(=O)O)=C(CSc4cc(C(=O)O)c5nnnn5n4)CS[C@H]23)cs1 (stereo partly drawn) [Compound 13, (6R,7R)-7-[2-(2-amino-4-thiazolyl)-2-[Z-[carboxy(3,4-dihydroxyphenyl)methyl]oxyimino]acetamido]-3-[(8-carboxytetrazolo [1,5-b]pyridazin-6-yl)thiomethyl]-8-oxo-5-thia-1-azabicyclo[4.2.0]oct-2-ene-2-carboxylic acid] | 0.2 (≈ 0.269 µM) | < 0.05 | 0.78 (≈ 1.05 µM) | 0.2 (≈ 0.269 µM) | 1.56 (≈ 2.09 µM) | 1.05 | > 1000 |  |
| Nc1nc(/C(=N/O[C@H](C(=O)O)c2ccc(O)c(O)c2)C(=O)N[C@@H]2C(=O)N3C(C(=O)[O-])=C(C[n+]4cccc5c4CCC5)CS[C@H]23)cs1 [Compound 16, (6R,7R)-7-[2-(2-amino-4-thiazolyl)-2-[Z-[(S)-carboxy(3,4-dihydroxyphenyl)methyl]oxyimino]acetamido]-3-(2,3-cyclopentenopyridiniummethyl)-8-oxo-5-thia-1-azabicyclo [4.2.0]oct-2-ene-2-carboxylate] | 0.1 (≈ 0.15 µM) | < 0.05 | 0.39 (≈ 0.585 µM) | 0.1 (≈ 0.15 µM) | 0.78 (≈ 1.17 µM) |  | > 1000 |  |
| Cc1cc(SCC2=C(C(=O)O)N3C(=O)[C@@H](NC(=O)/C(=N\OC(C(=O)O)c4cc(O)c(O)c(O)c4)c4csc(N)n4)[C@H]3SC2)n2nc(C(=O)O)nc2n1 (stereo partly drawn) [Compound 12, (6R,7R)-7-[2-(2-amino-4-thiazolyl)-2-[Z-[carboxy(3,4,5-trihydroxyphenyl)-methyl]oxyimino]acetamido]-3-[(2-carboxy-5-methyl-s-triazolo[l,5-a]pyrimidin-7-yl)thiomethyl]-8-oxo-5-thia-l-azabicyclo [4 2.0]oct-2-ene-2-carboxylic acid] | 1.1 (≈ 1.42 µM) | < 0.05 | 6.25 (≈ 8.08 µM) |  | 0.78 (≈ 1.01 µM) |  |  |  |
| Cc1cc(SCC2=C(C(=O)O)N3C(=O)[C@@H](NC(=O)/C(=N\OC(C)(C)C(=O)c4ccc(O)c(O)c4)c4csc(N)n4)[C@H]3SC2)n2nc(C(=O)O)nc2n1 [Compound 6, (6R,7R)-7-[2-(2-amino-4-thiazolyl)-2-[Z-[1-(3,4-dihydroxybenzoyl)-1-methylethyl]oxyimino]acetamido]-3-[(2-carboxy-5-methyl-s-triazolo-[1,5-a]pyrimidin-7-yl)thiomethyl]-8-oxo-5-thia-1-azabicyclo[4.2.0]oct-2-ene-2-carboxylicacid] | < 0.05 | < 0.05 | 0.78 (≈ 1.01 µM) | < 0.05 | 6.25 (≈ 8.12 µM) |  | > 1000 |  |
| Cc1cc(=O)n2nc(SCC3=C(C(=O)O)N4C(=O)[C@@H](NC(=O)/C(=N\OC(=O)c5cc(O)c(O)cc5C)c5csc(N)n5)[C@H]4SC3)sc2n1 [Compound 4] | 0.78 (≈ 1.07 µM) | < 0.05 | 3.13 (≈ 4.28 µM) | < 0.05 | 0.39 (≈ 0.534 µM) |  | > 1000 |  |
| Cc1cc(SCC2=C(C(=O)O)N3C(=O)[C@@H](NC(=O)C(NC(=O)c4ccc(O)c(O)c4)c4csc(N)n4)[C@H]3SC2)n2nc(C(=O)O)nc2n1 (stereo partly drawn) [Compound 17, (6R,7R)-7-[2-(2-amino-4-thiazolyl)-2-(3,4-dihydroxybenzoylamino)acetamido]-3-[(2-carboxy-5-methyl-s-triazolo [1,5-a]pyrimidin-7-yl)thiomethyl]-8-oxo-5-thia-1-azabicyclo[4.2.0]oct-2-ene-2-carboxylic acid] | < 0.05 | < 0.05 | 1.56 (≈ 2.19 µM) | < 0.05 | 3.13 (≈ 4.39 µM) |  |  |  |
| Nc1nc(/C(=N/OC(C(=O)O)c2ccc(O)c(O)c2)C(=O)N[C@@H]2C(=O)N3C(C(=O)[O-])=C(C[n+]4ccccc4)CS[C@H]23)cs1 (stereo partly drawn) [Compound 14, (6R,7R)-7-[2-(2-amino-4-thiazolyl)-2-[Z-[carboxy(3 4-dihydroxyphenyl)methyl]-oxyimino]acetamido]-3-(pyridiniummethyl)-8-oxo-5-thia-l-azabicyclo[4.2.0]oct-2-ene-2-carboxylate] | 0.39 (≈ 0.622 µM) | 0.1 (≈ 0.16 µM) | 1.56 (≈ 2.49 µM) | 0.39 (≈ 0.622 µM) | 0.78 (≈ 1.24 µM) |  |  |  |
| CC(=O)Oc1ccc([C@H](O/N=C(\C(=O)N[C@@H]2C(=O)N3C(C(=O)O)=C(CSc4cc(C)nc5nc(C(=O)O)nn45)CS[C@H]23)c2csc(N)n2)C(=O)O)cc1OC(C)=O [Compound 7, (6R,7R)-7-[2-(2-amino-4-thiazolyl)-2-[Z-[(S)-carboxy(3,4-diacetoxyphenyl)methyl]oxyimino]acetamido]-3-[(2-carboxy-5-methyl-s-triazolo-[1,5-a]pyrimidin-7-yl)thiomethyl]-8-oxo-5-thia-1-azabicyclo[4.2.0]oct-2-ene-2-carboxylic acid] | 0.2 (≈ 0.238 µM) | < 0.05 | 1.56 (≈ 1.85 µM) | 0.1 (≈ 0.119 µM) |  |  |  |  |
| Nc1nc(/C(=N/O[C@H](C(=O)O)c2ccc(O)c(O)c2)C(=O)N[C@@H]2C(=O)N3C(C(=O)[O-])=C(C[n+]4ccccc4)CS[C@H]23)cs1 [Compound 15, (6R,7R)-7-[2-(2-amino-4-thiazolyl)-2-[Z-[(S)-carboxy(3,4-dihydroxyphenyl)methyl]oxyimino]acetamido]-3-(pyridiniummethyl)-8-oxo-5-thia-1-azabicyclo[4.2.0]oct-2-ene-2-carboxylate] | 0.1 (≈ 0.16 µM) | < 0.05 | 0.39 (≈ 0.622 µM) | 0.1 (≈ 0.16 µM) | 0.78 (≈ 1.24 µM) |  | > 1000 |  |
| Cn1nnnc1SCC1=C(C(=O)O)N2C(=O)[C@@H](NC(=O)[C@H](O)c3ccccc3)[C@H]2SC1 [CMD, Cefamandole, reference compound] |  |  |  |  |  |  |  | 31 |
| Cc1cc(SCC2=C(C(=O)O)N3C(=O)[C@@H](NC(=O)/C(=N\O[C@@H](C(=O)O)c4ccc(O)c(O)c4)c4csc(N)n4)[C@H]3SC2)n2nc(C(=O)O)nc2n1 [Compound 10, (6R,7R)-7-[2-(2-amino-4-thiazolyl)-2-[Z-[(R)-carboxy(3,4-dihydroxyphenyl)-methyl]oxyimino]acetamido]-3-[(2-carboxy-5-methyl-s-triazolo[1,5-a]pyrimidin-7-yl)thiomethyl]-8-oxo-5-thia-1-azabicyclo[4.2.0]oct-2-ene-2-carboxylic acid] | 0.2 (≈ 0.264 µM) | < 0.05 | 6.25 (≈ 8.25 µM) | 0.1 (≈ 0.132 µM) | 0.78 (≈ 1.03 µM) | 28.6 |  |  |
| Cc1cc(SCC2=C(C(=O)O)N3C(=O)[C@@H](NC(=O)/C(=N\OC(C)(C(=O)O)c4ccc(O)c(O)c4)c4csc(N)n4)[C@H]3SC2)n2nc(C(=O)O)nc2n1 (stereo partly drawn) [Compound 11, (6R,7R)-7-[2-(2-amino-4-thiazolyl)-2-[Z-[1-carboxy-1-(3,4-dihydroxyphenyl)ethyl]oxyimino]acetamido]-3-[(2-carboxy-5-methyl-s-triazolo[1,5-a]pyrimidin-7-yl)thiomethyl]-8-oxo-5-thia-1-azabicyclo[4.2.0]oct-2-ene-2-carboxylic acid] | < 0.05 | < 0.05 | 0.78 (≈ 1.01 µM) | 0.2 (≈ 0.259 µM) | 0.78 (≈ 1.01 µM) |  |  |  |
| CC(=O)Oc1ccc([C@@H](O/N=C(\C(=O)N[C@@H]2C(=O)N3C(C(=O)O)=C(CSc4cc(C)nc5nc(C(=O)O)nn45)CS[C@H]23)c2csc(N)n2)C(=O)O)cc1OC(C)=O [Compound 8, (6R,7R)-7-[2-(2-amino-4-thiazolyl)-2-[Z-[(R)-carboxy(3,4-diacetoxyphenyl)-methyl]oxyimino]acetamido]-3-[(2-carboxy-5-methyl-s-triazolo[l,5-a]pyrimidin-7-yl)thiomethyl]-8-oxo-5-thia-1-azabicyclo [4.2.0]oct-2-ene-2-carboxyl-acid] | 0.2 (≈ 0.238 µM) | < 0.05 | 3.13 (≈ 3.72 µM) | 0.1 (≈ 0.119 µM) |  | 10.5 |  |  |
| CC(=O)Oc1cc(C(=O)O)c(CO/N=C(\C(=O)N[C@@H]2C(=O)N3C(C(=O)O)=C(CSc4cc(C)nc5nc(C(=O)O)nn45)CS[C@H]23)c2csc(N)n2)cc1O [Compound 5, (6R,7R)-7-[2-(2-amino-4-thiazolyl)-2-[Z-[(4-acetoxy-2-carboxy-5-hydroxyphenyl)-methyl]oxyimino]acetamido]-3-[(2-carboxy-5-methyl-s-triazolo-[1,5-a]pyrimidin-7-yl)thiomethyl]-8-oxo-5-thia-1-azabicyclo[4.2.0]oct-2-ene-2-carboxylic acid] | < 0.05 | < 0.05 | 0.2 (≈ 0.25 µM) | < 0.05 | 1.56 (≈ 1.95 µM) |  |  |  |
| Cc1cc(SCC2=C(C(=O)O)N3C(=O)[C@@H](NC(=O)/C(=N\OC(=O)c4cc(O)c(O)c(O)c4)c4csc(N)n4)[C@H]3SC2)n2nc(C(=O)O)nc2n1 [Compound 1, (6R,7R)-7-[2-(2-amino-4-thiazolyl)-2-[Z-(3,4,5-trihydroxybenzoyl)oxyimino]acetamido]-3-[(2-carboxy-5-methyl-s-triazolo[l,5-a]-pyrimidin-7-yl)thiomethyl]-8-oxo-5-thia-l-azabicyclo [4.2.0]oct-2-ene-2-carboxylic acid] | < 0.05 | < 0.05 | 3.13 (≈ 4.21 µM) | < 0.05 | 0.78 (≈ 1.05 µM) |  | > 1000 |  |
